Reference: PMC11134387, “Cancer-Stem-Cell Phenotype-Guided Discovery of a Microbiota-Inspired Synthetic Compound Targeting NPM1 for Leukemia” (JACS Au, 2024)

Columns and labels:
HCT-116 = test: Cytotoxic effect in colon tumor cell line (MTT); conditions: for viability at 10 µM: HCT-116, read-out: Viability (%) HCT-116, @10 µM; for viability at 1 µM: HCT-116, read-out: Viability (%) HCT-116, @1 µM (footnote b)
Protocol: (§5) The cytotoxic effect was determined in breast (MCF-7) and colon (HCT-116) tumor cell lines using MTT assays.
(§6) Cells were seeded at 3 × 10^4 cells/mL in 96-well plates. The test compound was diluted in PBS. […] Viability was evaluated by MTT or WST-1 and dose/response curves were performed.

[1] = test system: MCF-7-derived mamospheres; test: Formation of MCF-7-derived mamospheres (CSC tumorspheres); format: cell-based; conditions: for inhibition at 10 µM / inhibition at 1 µM / inhibition at 5 µM: Homo sapiens, MCF7, read-out: Inhibition of tumorsphere formation (%) MCF-7; for inhibition at 1 µM: @1 µM (footnote b); for Formation of tumorspheres (in words): MCF-7 mamospheres and HCT-116 colonospheres, noncytotoxic concentration; for inhibition at 5 µM: @5 µM (footnote d)
Protocol: (§1) (BD Biosciences, Franklin Lakes, NJ, USA). All cells were maintained at 37 °C in a humidified incubator in an atmosphere of 5% CO2, and passaged every 2–3 days.
(§2) Additionally, they were cultured using RPMI media (Gibco/Life Technologies; Grand […]
(§3) Colonospheres, mamospheres and colony formation unit assays. 30.000 cells per well of MCF-7 cells (mamos pheres), HCT-116 cells (colonospheres) and CD34+ cells from patients (colony formation units) were seeded in serum free non- adherent medium or […]
(§4) MethoCult (Stem Cell). […]

[2] = test system: HCT-116-derived colonospheres; test: Formation of HCT-116-derived colonospheres (CSC tumorspheres); format: cell-based; conditions: for inhibition at 1 µM: @1 µM (footnote b)
Protocol: as §1, §2, §3, §4

MCF-7 = test: Cytotoxic effect in breast tumor cell line (MTT); conditions: for viability at 10 µM / viability at 1 µM / viability at 5 µM: Homo sapiens; for viability at 10 µM: MCF7, read-out: Viability (%) MCF-7, @10 µM; for viability at 1 µM: MCF7, read-out: Viability (%) MCF-7, @1 µM (footnote b); for viability at 5 µM: MCF7, read-out: Viability (%) MCF-7, @5 µM (footnote d)
Protocol: as §5, §6

[3] = Viability of non-tumor fibroblast cell line; format: cell-based; conditions: human, IMR90 non-tumor fibroblasts; for viability at 48 h, 1 µM: @1 µM (footnote b)
Protocol: The test compound was diluted in PBS.
Viability (%) tum orsphere form ation (%)

[4] = Plasma protein binding, equilibrium dialysis (RED); format: in vitro ADME; conditions: mouse serum
Protocol: Based on the encouraging results obtained in ex vivo models of AML, we further assessed the therapeutic potential of the new NPM1 inhibitor in vivo. Prior to the evaluation of the compound in an animal model of AML, in vivo pharmacokinetic studies were addressed. Following a single intraperitoneal administration of UCM-13369 at a dose of 25 mg/kg, levels of 200–600 μg/L were detected in mouse peripheral blood up to 6 h (Figure 6A). Plasma protein binding of the compound in mouse serum was measured using an equilibrium dialysis assay, indicating a bound fraction of 83 ± 1%. Next, the efficacy of the compound was evaluated in immunodeficient mice after injection of OCI-AML3-ffLuc-GFP cells as an AML animal model. […]
coupled to a liquid nanochromatography Easy nLC 1200 System (Thermo Scientific).
Once digested, mutant NPM1 C+ C-end sample w as injected into a EASY-Spray™ C18 column, and digestion peptides were separated by using a lineal phase gradi ent (A: 0.1% formic acid in water; B: 20% acetonitrile, 0.1% formic acid in water) for 120 min. Spectra were acquired in DDA m ode, analyzing the 10 higher intensity parent ions in each cycl e.
Proteome Discoverer (Thermo Scientific) was used to align the spectra with the C-end […]
Random exclusion of AIRs was set to 2%. […] Clusters were classifi ed according to H ADDOCK score and stru ctures w er e analyzed with UCSF ChimeraX).10 […]

[5] = Homo sapiens, HCT-116, @10 µM, read-out: Inhibition of tumorsphere formation (%) HCT-116
[6] = Homo sapiens, HCT-116, read-out: Inhibition of tumorsphere formation (%) HCT-116

COc1ccc2c(c1)C1C(=NO)N(CC3CC3)CC1C(C)(C)O2 (stereo not shown) [7b]
viability at 10 µM (HCT-116; Homo sapiens): 95 ± 2% | inhibition at 10 µM ([1]; @10 µM): 0% | inhibition at 10 µM [2, 5]: 0% | viability at 10 µM (MCF-7): 96 ± 2%

COc1ccc([C@H]2C(CNCC3CC3)=C[C@@H]3[C@H](c4ccccc4O[C@H]3c3ccc(OC)cc3)[C@@H]2N)cc1 [5b]
viability at 48 h, 1 µM [3]: 98 ± 2% | viability at 48 h, 5 µM [3]: 28 ± 7% | viability at 1 µM (HCT-116; Homo sapiens): 94 ± 6% | inhibition at 1 µM [1]: 100% | Formation of tumorspheres (in words) [1]: completely inhibit | inhibition at 1 µM [2, 6]: 100% | viability at 1 µM (MCF-7): 87 ± 1%

COc1ccc(C2C(CNCC3CC3)=Cc3nccnc3N2C)cc1 (stereo not shown) [13a]
viability at 10 µM (HCT-116; Homo sapiens): 85 ± 7% | inhibition at 10 µM ([1]; @10 µM): 0% | inhibition at 10 µM [2, 5]: 0%

COc1ccc([C@@H]2CC(=O)N(CC3CC3)C[C@H]2N)cc1 [1a]
viability at 10 µM (HCT-116; Homo sapiens): 70 ± 2% | inhibition at 10 µM ([1]; @10 µM): 0% | inhibition at 10 µM [2, 5]: 0% | viability at 10 µM (MCF-7): 91 ± 7%

COc1ccc([C@H]2Oc3ccccc3[C@@H](CN)[C@@H]2C(=O)NCC2CC2)cc1 [10a]
melting point: 175 to 177 °C | viability at 10 µM (HCT-116; Homo sapiens): 61 ± 8% | inhibition at 10 µM ([1]; @10 µM): 4 ± 2% | inhibition at 10 µM [2, 5]: 2 ± 1% | viability at 10 µM (MCF-7): 89 ± 6%

COc1ccc2c(c1)[C@H](CN)[C@@H](C(=O)NCC1CC1)C(C)(C)O2 [11b]
viability at 10 µM (HCT-116; Homo sapiens): 94 ± 2% | inhibition at 10 µM ([1]; @10 µM): 0% | inhibition at 10 µM [2, 5]: 0% | viability at 10 µM (MCF-7): 99 ± 1%

COc1ccc([C@@H]2Cc3[nH]c4ccccc4c3[C@H](CCNCC3CC3)[C@H]2N)cc1 [4a, 4-{2-[(Cyclopropylmethyl)amino]ethyl}-2-(4-methoxyphenyl)-2,3,4,9-tetrahydro-1H-carbazol-3-amine]
viability at 0.1 µM (HCT-116; Homo sapiens, HCT-116, read-out: Viability (%) HCT-116, @0.1 µM (footnote c)): 85 ± 2% | inhibition at 1 µM [1]: 0% | inhibition at 0.1 µM ([2]; Homo sapiens, HCT-116, @0.1 µM (footnote c), read-out: Inhibition of tumorsphere formation (%) HCT-116): 0% | viability at 1 µM (MCF-7): 92 ± 7%

COc1ccc([C@@H]2CCN(CC3CC3)C[C@H]2N)cc1 [2a]
viability at 10 µM (HCT-116; Homo sapiens): 90 ± 1% | inhibition at 10 µM ([1]; @10 µM): 0% | inhibition at 10 µM [2, 5]: 0% | viability at 10 µM (MCF-7): 96 ± 3%

COc1ccc2c(c1)C1C(=O)N(CC3CC3)CC1C(C)(C)O2 (stereo not shown) [9b]
viability at 10 µM (HCT-116; Homo sapiens): 90 ± 3% | inhibition at 10 µM ([1]; @10 µM): 0% | inhibition at 10 µM [2, 5]: 0% | viability at 10 µM (MCF-7): 65 ± 2%

COc1ccc([C@@H]2C(CNCC3CC3)=C[C@H]3[C@@H](c4ccccc4OC3(C)C)[C@H]2N)cc1 [6a]
viability at 48 h, 1 µM [3]: 95 ± 5% | viability at 48 h, 5 µM [3]: 53 ± 12% | viability at 1 µM (HCT-116; Homo sapiens): 81 ± 6% | inhibition at 5 µM [1]: 100% | Formation of tumorspheres (in words) [1]: completely inhibit | inhibition at 1 µM [2, 6]: 100% | viability at 5 µM (MCF-7): 94 ± 11%

COc1ccc([C@@H]2CCNC[C@H]2NCC2CC2)cc1 [3a]
viability at 10 µM (HCT-116; Homo sapiens): 95 ± 1% | inhibition at 10 µM ([1]; @10 µM): 0% | inhibition at 10 µM [2, 5]: 0% | viability at 10 µM (MCF-7): 98 ± 2%

CC(C)NCC(O)COc1cccc2ccccc12 (stereo not shown) [Propranolol, reference compound]
Plasma protein binding, bound fraction [4]: 86±2%

COc1ccc([C@@H]2Oc3ccccc3[C@H](CN)[C@H]2C(=O)NCC2CC2)cc1 [10b]
viability at 10 µM (HCT-116; Homo sapiens): 70 ± 1% | inhibition at 10 µM ([1]; @10 µM): 0% | inhibition at 10 µM [2, 5]: 0% | viability at 10 µM (MCF-7): 94 ± 5%

COc1ccc(C2CC(=O)N(CC3CC3)CC2N)cc1 (stereo not shown) [1b]
viability at 10 µM (HCT-116; Homo sapiens): 97 ± 2% | inhibition at 10 µM ([1]; @10 µM): 0% | inhibition at 10 µM [2, 5]: 0% | viability at 10 µM (MCF-7): 80 ± 2%

COc1ccc2c(c1)[C@H]1CN(CC3CC3)C[C@@H]1C(C)(C)O2 [8a]
viability at 10 µM (HCT-116; Homo sapiens): 94 ± 6% | inhibition at 10 µM ([1]; @10 µM): 0% | inhibition at 10 µM [2, 5]: 0% | viability at 10 µM (MCF-7): 65 ± 1%

COc1ccc2c(c1)[C@H]1C(=NO)N(CC3CC3)C[C@@H]1C(C)(C)O2 [7a]
viability at 10 µM (HCT-116; Homo sapiens): 92 ± 1% | inhibition at 10 µM ([1]; @10 µM): 0% | inhibition at 10 µM [2, 5]: 0% | viability at 10 µM (MCF-7): 98 ± 1%

COc1ccc([C@H]2CCN(CC3CC3)C[C@@H]2N)cc1 [2b]
viability at 10 µM (HCT-116; Homo sapiens): 94 ± 3% | inhibition at 10 µM ([1]; @10 µM): 0% | inhibition at 10 µM [2, 5]: 0% | viability at 10 µM (MCF-7): 97 ± 3%

COc1ccc([C@H]2C(CNCC3CC3)=C[C@@H]3[C@H](c4ccccc4OC3(C)C)[C@@H]2N)cc1 [6b]
viability at 48 h, 5 µM [3]: 57 ± 13% | viability at 1 µM (HCT-116; Homo sapiens): 78 ± 9% | inhibition at 5 µM [1]: 100% | Formation of tumorspheres (in words) [1]: completely inhibit | inhibition at 1 µM [2, 6]: 100% | viability at 5 µM (MCF-7): 94 ± 5%

COc1ccc2c(c1)[C@H]1C(=O)N(CC3CC3)C[C@@H]1C(C)(C)O2 [9a]
viability at 10 µM (HCT-116; Homo sapiens): 94 ± 2% | inhibition at 10 µM ([1]; @10 µM): 0% | inhibition at 10 µM [2, 5]: 0% | viability at 10 µM (MCF-7): 73 ± 5%

COc1ccc2c(c1)[C@@H](CN)[C@H](C(=O)NCC1CC1)C(C)(C)O2 [11a]
viability at 10 µM (HCT-116; Homo sapiens): 94 ± 2% | inhibition at 10 µM ([1]; @10 µM): 0% | inhibition at 10 µM [2, 5]: 0% | viability at 10 µM (MCF-7): 92 ± 2%

COc1ccc2c(c1)[C@H](CN)[C@@H](CNCC1CC1)C(C)(C)O2 [12b]
viability at 10 µM (HCT-116; Homo sapiens): 92 ± 3% | inhibition at 10 µM ([1]; @10 µM): 0% | inhibition at 10 µM [2, 5]: 0% | viability at 10 µM (MCF-7): 73 ± 3%

COc1ccc2c(c1)[C@@H](CN)[C@H](CNCC1CC1)C(C)(C)O2 [12a]
viability at 10 µM (HCT-116; Homo sapiens): 90 ± 4% | inhibition at 10 µM ([1]; @10 µM): 0% | inhibition at 10 µM [2, 5]: 0% | viability at 10 µM (MCF-7): 90 ± 2%

COc1ccc2c(c1)C1CN(CC3CC3)CC1C(C)(C)O2 (stereo not shown) [8b]
viability at 10 µM (HCT-116; Homo sapiens): 93 ± 2% | inhibition at 10 µM ([1]; @10 µM): 0% | inhibition at 10 µM [2, 5]: 0% | viability at 10 µM (MCF-7): 98 ± 1%

COc1ccc(C2C(CNCC3CC3)=Cc3nccnc3N2C)cc1 (stereo not shown) [13b]
Viability (%) HCT-116 (HCT-116; @10 µM): 90 ± 3% | Inhibition of tumorsphere formation (%) MCF-7 ([1]; @10 µM): 0% | Inhibition of tumorsphere formation (%) HCT-116 ([2]; @10 µM): 0% | Viability (%) MCF-7 (MCF-7; @10 µM): 89 ± 6%

COc1ccc([C@H]2Oc3ccccc3[C@H]3[C@@H](N)[C@H](c4ccc(OC)cc4)C(CNCC4CC4)=C[C@@H]32)cc1 [5a]
viability at 48 h, 1 µM [3]: 83 ± 6% | viability at 48 h, 5 µM [3]: 20 ± 5% | viability at 1 µM (HCT-116; Homo sapiens): 87 ± 1% | inhibition at 1 µM [1]: 100% | Formation of tumorspheres (in words) [1]: completely inhibit | inhibition at 1 µM [2, 6]: 100% | viability at 1 µM (MCF-7): 99 ± 1%

COc1ccc([C@H]2CCNC[C@@H]2NCC2CC2)cc1 [3b]
viability at 10 µM (HCT-116; Homo sapiens): 94 ± 3% | inhibition at 10 µM ([1]; @10 µM): 0% | inhibition at 10 µM [2, 5]: 0% | viability at 10 µM (MCF-7): 95 ± 4%
